# Measurements as given in US8962600B2, “Neuroprotective compounds and their use” (The Medical College of Wisconsin, Inc., priority 2009, dated 2015).
# Key:
# IL-10 = test: LPS-induced IL-10 release in primary microglia, LUMINEX immunoassay; type: cell-based, mouse; conditions: diapocynin 10 μM, LPS 24 hr
# Protocol: (§1) Primary microglia were obtained from 1-2 day old C57/b16 mouse pups. Upon collection, whole brains were kept in ice-cold DMEM-F12 medium containing 10% FBS, 1× sodium pyruvate, 1× NEAAs, 100 units pen/strep, and Q. After collection, the brains were placed in 0.25% trypsin-EDTA and incubated at 37° C., with gentle shaking every 5-10 min. After 30 min, the trypsin was removed, and the brains are washed in warmed medium twice. After washing, medium was added to the brains, and the brains were homogenized using gentle pipetting, starting with a 25 ml pipette and moving to smaller pipette tips as the brains were broken up. When the brains were sufficiently homogenized to a single-cell suspension, they were filtered with a 70 μm nylon filter, which allowed microglia and astrocytes to be collected. The resultant cell suspension was plated in T-75 flasks and allowed to grow for 12-14 days at 37° C., 5% CO2. […]
# (§2) Cytokine levels of BV2 and microglial cells treated with diapocynin were determined by LUMINEX® multiplex immunoassay. […]
# (§3) Cytokine standards and controls were adjusted to 40 μl volume and the LUMINEX® Samples were run on a LUMINEX® 200 Total System and analyzed with Multiplex Analysis—LUMINEX® Software (Invitrogen, Carlsbad, Calif.).
# BV2 microglial cells = test: LPS-induced iNOS activation (nitrite, Griess reagent) in BV2 microglial cells; type: cell-based, mouse; conditions: 30 min pretreatment
# Protocol: Two cell models of neuroinflammation were used to evaluate the anti-neuroinflammatory property of diapocynin including the mouse BV2 microglial cell line, as well as primary microglia isolated from mouse brains. BV2 cells were obtained from the American Tissue Culture Collection. BV2 cells were maintained in RPMI containing 10% FBS and 100 units of pen/strep at 37° C. and 5% CO2. For treatments, RPMI containing 2% FBS and 100 units of pen/strep was used.
# Inducible nitric oxide synthase (iNOS or NOS2) activation was assessed by measuring nitrite levels using Griess reagent in a 96-well format (70-72). Each well contained 40,000 BV2 cells or 100,000 primary microglia. BV2 cells were cultured in 150 μl of RPMI containing 10% FBS and pen/strep, and the primary microglia were cultured in DMEM-F12 containing 10% FBS, pen/strep, sodium pyruvate (S/P), Q, and NEAAs. One day after culturing, cells were replaced with 150 μl of their respective complete media containing only 2% FBS. Both cell types were pretreated with diapocynin (10 μM) and apocynin (100 μM) for 30 min before LPS stimulation (1 μg/ml LPS for BV2 cells and 100 ng/ml for primary microglia), and the plates were incubated at 37° C. After 24 hr at 37° C., 100 μl of supernatant were removed and placed into a new 96 well plate, to which 100 μl of Griess reagent were added. The plate was shaken on a plate shaker for 10 min before being read in a plate reader at 540 nm.
# This example generally followed the cell culture, treatment, and analysis steps of Example 4 above.
# Diapocynin diacetate (diapodiacetate or diapo diace) suppresses LPS-induced NOS-2 in BV2 microglial cells (FIG. 21). BV-2 cells were plated in 96 well plates, 40,000 cells per well, and treated in 150 μl of RPMI containing 2% heat inactivated FBS and penicillin/streptomycin. Diapo diacetate was used on the cells as a 30 min pretreatment, then LPS (1 μg/ml) was added. All treatments were allowed to incubate at 37° C. for 24 hr, starting from the addition of LPS. One hundred microliter aliquots of supernatant from each well were combined with 100 μl of Griess reagent (Sigma) in a 96-well plate and allowed to shake for 10 minutes before being read on the plate reader. The percent nitrite level for the treatments compared to the control was graphed.
# IL-12 = test: LPS-induced IL-12 release in primary microglia, LUMINEX immunoassay; type: cell-based, mouse; conditions: diapocynin 10 μM, LPS 24 hr
# Protocol: as §1, §2, §3
# MPTP-intoxicated mice = test: Rotarod in MPTP-injected mice; type: in vivo, C57BL/6 mice; conditions: 20 rpm; MPTP- and diapocynin-treated mice; 300 mg/kg oral gavage; 5 days after last MPTP injection
# Protocol: Six- to 8-week-old C57BL/6 mice weighing 24 to 28 g were housed in standard conditions of constant temperature (22±1° C.), humidity (relative, 30%), and a 12-h light/dark cycle. Mice were allowed free access to food and water. Use of the animals and protocol procedures were approved and supervised by the Committee on Animal Care at Iowa State University (Ames, Iowa). For neurodegeneration studies, mice either received diapocynin (300 mg/kg dose) by oral gavage for 1 day (pre-treatment before MPTP administration), 5 days (co-treatment with MPTP), or 7 days (post-treatment after MPTP).
# Two types of behavioral tests were performed including an Open Field experiment for testing locomotor activities and a Rotarod experiment to test coordination of movement of mice after MPTP and diapocynin treatment (48, 56). An Open Field activity monitor (model RXYZCM-16; AccuScan, Columbus, Ohio) was used to measure the spontaneous activity of mice. The activity chamber was 40×40×30.5 cm, made of clear PLEXIGLAS® and covered with a PLEXIGLAS® lid with holes for ventilation. Infrared monitoring sensors were located every 2.54 cm along the perimeter (16 infrared beams along each side) and 2.5 cm above the floor. Two additional sets of 16 sensors were located 8.0 cm above the floor on opposite sides. Data were collected and analyzed by a VersaMax Analyzer (model CDA-8, AccuScan). […]
compound,measurement,setting,value
COc1cc(C(C)=O)cc(-c2cc(C(C)=O)cc(OC)c2O)c1O [diapocynin],blocking LPS-induced release of IL-10,IL-10,very effective
same,"attenuating LPS-induced iNOS activation, compared with apocynin 100 μM","BV2 microglial cells; BV2 cells, diapocynin 10 μM, LPS 1 μg/ml 24 hr",just as effective
same,EC50,"BV2 microglial cells; Mus musculus, BV-2 cells, LPS 1 μg/ml, Griess reagent, non-linear regression of dose response curve, read-out: EC50, block of LPS-induced iNOS activation (nitrite level)",7.76 µM
same,blocking LPS-induced release of IL-12,IL-12,very effective
same,decrease in time spent on Rotarod compared to control mice,MPTP-intoxicated mice,< 25%
